Data on eight compounds can be found in PubChem BioAssay AID216 (DTP/NCI, 2004).

“And” between values parts separate entries of the source, which are not always exact repeats. Identical values can stand only once. Toxic doses and inconclusive results are not listed.

For this assay, the system named is BDF1 mice, P288 leukemia ip, survival T/C. Briefly: NCI In Vivo Anticancer Drug Screen. Data for tumor model P288 Lymphocytic Leukemia (intraperitoneal) in B6D2F1 (BDF1) mice. Particulars: higher = longer survival. How it is done:
The antitumor activity of compounds was measured in mice bearing transplantable tumors. Survival or tumor size were measured and the results are expressed as the measurement made in the treated group (T) divided by the measurement made in the vehicle treated control group (C). The tumor model used in this assay is P288 Lymphocytic Leukemia (intraperitoneal) in B6D2F1 (BDF1) mice

Where [1] appears, read: endpoint: survival time, mean or median, dose: 125.0 micrograms/kg/injection, schedule: Q01DX010 (ip), vehicle: saline.
[2] abbreviates: endpoint: survival time, mean or median, dose: 250.0 micrograms/kg/injection, schedule: Q01DX010 (ip), vehicle: saline.
[3] abbreviates: endpoint: survival time, mean or median, dose: 3.1 mg/kg/injection, schedule: Q01DX Z (ip), vehicle: carboxymethylcellulose (CMC).
[4] abbreviates: endpoint: survival time, mean or median, dose: 6.25 mg/kg/injection, schedule: Q01DX Z (ip), vehicle: carboxymethylcellulose (CMC).

With `N#Cc1cn(C2OC(CO)C(O)C2O)c2ncnc(N)c12` (stereo not given), the T/C was 114 % of control (endpoint: survival time, mean or median, dose: 0.12 mg/kg/injection, schedule: Q01DX Z (ip), vehicle: carboxymethylcellulose (CMC)); 106 % of control (endpoint: survival time, mean or median, dose: 0.25 mg/kg/injection, schedule: Q01DX Z (ip), vehicle: carboxymethylcellulose (CMC)); 93 % of control (endpoint: survival time, mean or median, dose: 0.5 mg/kg/injection, schedule: Q01DX Z (ip), vehicle: carboxymethylcellulose (CMC)); 106 % of control (endpoint: survival time, mean or median, dose: 1.0 mg/kg/injection, schedule: Q01DX Z (ip), vehicle: carboxymethylcellulose (CMC)); 103 % of control (endpoint: survival time, mean or median, dose: 8.0 micrograms/kg/injection, schedule: Q01DX Z (ip), vehicle: carboxymethylcellulose (CMC)); 103 % of control (endpoint: survival time, mean or median, dose: 16.0 micrograms/kg/injection, schedule: Q01DX Z (ip), vehicle: carboxymethylcellulose (CMC)). Moreover, the T/C (endpoint: survival time, mean or median, dose: 31.0 micrograms/kg/injection, schedule: Q01DX Z (ip), vehicle: carboxymethylcellulose (CMC)) was 97 % of control; the T/C (endpoint: survival time, mean or median, dose: 31.3 micrograms/kg/injection, schedule: Q01DX010 (ip), vehicle: saline) was 155 % of control; the T/C (endpoint: survival time, mean or median, dose: 62.5 micrograms/kg/injection, schedule: Q01DX010 (ip), vehicle: saline) is 105 % of control; the T/C under setting [1] was 105 % of control; the T/C under setting [2] is 105 % of control.
As to `CS(=O)(=O)OCCCl`, the T/C runs as follows: under setting [3], 88 % of control; under setting [4], 89 % of control; (endpoint: survival time, mean or median, dose: 12.5 mg/kg/injection, schedule: Q01DX Z (ip), vehicle: carboxymethylcellulose (CMC)) 86 % of control and 89 % of control; (endpoint: survival time, mean or median, dose: 18.8 mg/kg/injection, schedule: Q01DX010 (ip), vehicle: saline) 88 % of control and 95 % of control; (endpoint: survival time, mean or median, dose: 37.5 mg/kg/injection, schedule: Q01DX010 (ip), vehicle: saline) 90 % of control and 94 % of control; (endpoint: survival time, mean or median, dose: 75.0 mg/kg/injection, schedule: Q01DX010 (ip), vehicle: saline) 90 % of control and 100 % of control. Further, the T/C (endpoint: survival time, mean or median, dose: 150.0 mg/kg/injection, schedule: Q01DX010 (ip), vehicle: saline) was 105 % of control and 90 % of control.
As for `O=P1(N(CCCl)CCCl)NCCCO1` (stereo not given), the T/C runs as follows: (endpoint: survival time, mean or median, dose: 11.3 mg/kg/injection, schedule: Q01DX010 (ip), vehicle: saline) 119 % of control; (endpoint: survival time, mean or median, dose: 12.5 mg/kg/injection, schedule: Q01DX Z (ip), vehicle: saline) 102 % of control and 106 % of control; (endpoint: survival time, mean or median, dose: 25.0 mg/kg/injection, schedule: Q01DX Z (ip), vehicle: saline) 113 % of control and 116 % of control; (endpoint: survival time, mean or median, dose: 45.0 mg/kg/injection, schedule: Q01DX010 (ip), vehicle: saline) 150 % of control and 198 % of control; (endpoint: survival time, mean or median, dose: 50.0 mg/kg/injection, schedule: Q01DX Z (ip), vehicle: saline) 112 % of control and 113 % of control; (endpoint: survival time, mean or median, dose: 62.5 mg/kg/injection, schedule: Q01DX Z (ip), vehicle: saline) 124 % of control. Besides, the T/C reads like this: (endpoint: survival time, mean or median, dose: 90.0 mg/kg/injection, schedule: Q01DX010 (ip), vehicle: saline) 158 % of control; (endpoint: survival time, mean or median, dose: 100.0 mg/kg/injection, schedule: Q01DX Z (ip), vehicle: saline) 152 % of control; (endpoint: survival time, mean or median, dose: 125.0 mg/kg/injection, schedule: Q01DX Z (ip), vehicle: saline) 113 % of control; (endpoint: survival time, mean or median, dose: 180.0 mg/kg/injection, schedule: Q01DX010 (ip), vehicle: saline) 91 % of control; (endpoint: survival time, mean or median, dose: 200.0 mg/kg/injection, schedule: Q01DX Z (ip), vehicle: saline) 86 % of control and 95 % of control.
Consider `CN(Cc1cnc2nc(N)nc(N)c2n1)c1ccc(C(=O)N[C@@H](CCC(=O)O)C(=O)O)cc1`, for which the T/C is 183 % of control (endpoint: median survival time, dose: 0.38 mg/kg/injection, schedule: Q01DX009 (ip), vehicle: sodium bicarbonate); 191 % of control (endpoint: median survival time, dose: 0.75 mg/kg/injection, schedule: Q01DX009 (ip), vehicle: sodium bicarbonate); 220 % of control (endpoint: median survival time, dose: 1.5 mg/kg/injection, schedule: Q01DX009 (ip), vehicle: sodium bicarbonate); 91 % of control (endpoint: median survival time, dose: 3.0 mg/kg/injection, schedule: Q01DX009 (ip), vehicle: sodium bicarbonate); 154 % of control (endpoint: median survival time, dose: 6.0 mg/kg/injection, schedule: Q01DX009 (ip), vehicle: sodium bicarbonate); 123 % of control (endpoint: survival time, mean or median, dose: 0.31 mg/kg/injection, schedule: Q01DX Z (ip), vehicle: other). Moreover, the T/C by setting is: (endpoint: survival time, mean or median, dose: 0.38 mg/kg/injection, schedule: Q01DX010 (ip), vehicle: other) 162 % of control and 167 % of control and 193 % of control; (endpoint: survival time, mean or median, dose: 0.62 mg/kg/injection, schedule: Q01DX Z (ip), vehicle: other) 189 % of control and 222 % of control; (endpoint: survival time, mean or median, dose: 0.75 mg/kg/injection, schedule: Q01DX010 (ip), vehicle: other) 176 % of control and 228 % of control and 235 % of control; (endpoint: survival time, mean or median, dose: 1.25 mg/kg/injection, schedule: Q01DX Z (ip), vehicle: other) 219 % of control and 256 % of control and 261 % of control; (endpoint: survival time, mean or median, dose: 1.5 mg/kg/injection, schedule: Q01DX010 (ip), vehicle: other) 229 % of control and 230 % of control (2×); (endpoint: survival time, mean or median, dose: 1.5 mg/kg/injection, schedule: Q01DX Z (ip), vehicle: other) 158 % of control. Also, the T/C is, setting by setting: (endpoint: survival time, mean or median, dose: 2.5 mg/kg/injection, schedule: Q01DX Z (ip), vehicle: other) 205 % of control and 244 % of control; (endpoint: survival time, mean or median, dose: 3.0 mg/kg/injection, schedule: Q01DX010 (ip), vehicle: other) 186 % of control; (endpoint: survival time, mean or median, dose: 5.0 mg/kg/injection, schedule: Q01DX Z (ip), vehicle: other) 116 % of control.
Take `CC(=O)Nc1ccc2nc3ccc(NC(C)=O)cc3[n+](-c3ccccc3)c2c1`: the T/C under setting [3] is 115 % of control; the T/C under setting [4] is 113 % of control; the T/C (endpoint: survival time, mean or median, dose: 25.0 mg/kg/injection, schedule: Q01DX010 (ip), vehicle: saline) was 112 % of control; the T/C (endpoint: survival time, mean or median, dose: 50.0 mg/kg/injection, schedule: Q01DX010 (ip), vehicle: saline) was 112 % of control and 95 % of control; the T/C (endpoint: survival time, mean or median, dose: 100.0 mg/kg/injection, schedule: Q01DX010 (ip), vehicle: saline) is 95 % of control; the T/C (endpoint: survival time, mean or median, dose: 200.0 mg/kg/injection, schedule: Q01DX010 (ip), vehicle: saline) was 90 % of control. The T/C reads like this: (endpoint: survival time, mean or median, dose: 400.0 mg/kg/injection, schedule: Q01DX010 (ip), vehicle: saline) 100 % of control; (endpoint: survival time, mean or median, dose: 400.0 mg/kg/injection, schedule: Q01DX Z (ip), vehicle: carboxymethylcellulose (CMC)) 162 % of control.
On to `CC(=O)NC1=C(N2CC2)C(=O)C(NC(C)=O)=C(N2CC2)C1=O`, for which the T/C reads like this: (endpoint: survival time, mean or median, dose: 0.25 mg/kg/injection, schedule: Q01DX010 (ip), vehicle: saline) 105 % of control; (endpoint: survival time, mean or median, dose: 0.5 mg/kg/injection, schedule: Q01DX010 (ip), vehicle: saline) 166 % of control; (endpoint: survival time, mean or median, dose: 1.0 mg/kg/injection, schedule: Q01DX010 (ip), vehicle: saline) 222 % of control; (endpoint: survival time, mean or median, dose: 2.0 mg/kg/injection, schedule: Q01DX010 (ip), vehicle: saline) 111 % of control; under setting [1], 105 % of control; under setting [2], 100 % of control. Also, the T/C is, setting by setting: (endpoint: survival time, mean or median, dose: 500.0 micrograms/kg/injection, schedule: Q01DX010 (ip), vehicle: saline) 100 % of control; (endpoint: survival time, mean or median, dose: 1000.0 micrograms/kg/injection, schedule: Q01DX010 (ip), vehicle: saline) 122 % of control.
For `CC[C@@H](c1ccc(O)cc1)[C@@H](CC)c1ccc(O)cc1`, the T/C was 98 % of control (endpoint: survival time, mean or median, dose: 31.0 mg/kg/injection, schedule: Q01DX Z (sc), vehicle: steriod suspending solution); 98 % of control (endpoint: survival time, mean or median, dose: 62.5 mg/kg/injection, schedule: Q01DX Z (sc), vehicle: steriod suspending solution); 115 % of control and 97 % of control and 100 % of control (endpoint: survival time, mean or median, dose: 125.0 mg/kg/injection, schedule: Q01DX Z (sc), vehicle: steriod suspending solution); 93 % of control and 98 % of control (endpoint: survival time, mean or median, dose: 250.0 mg/kg/injection, schedule: Q01DX Z (sc), vehicle: steriod suspending solution); 107 % of control and 95 % of control (endpoint: survival time, mean or median, dose: 500.0 mg/kg/injection, schedule: Q01DX Z (sc), vehicle: steriod suspending solution); 93 % of control (endpoint: survival time, mean or median, dose: 1000.0 mg/kg/injection, schedule: Q01DX Z (sc), vehicle: steriod suspending solution).
Turning to `OCC1OC(n2cnc3c(Cl)ncnc32)C(O)C1O` (stereo not given), the T/C by setting is: (endpoint: survival time, mean or median, dose: 62.5 mg/kg/injection, schedule: Q01DX Z (ip), vehicle: carboxymethylcellulose (CMC)) 104 % of control; (endpoint: survival time, mean or median, dose: 125.0 mg/kg/injection, schedule: Q01DX Z (ip), vehicle: carboxymethylcellulose (CMC)) 101 % of control; (endpoint: survival time, mean or median, dose: 250.0 mg/kg/injection, schedule: Q01DX Z (ip), vehicle: carboxymethylcellulose (CMC)) 92 % of control; (endpoint: survival time, mean or median, dose: 500.0 mg/kg/injection, schedule: Q01DX Z (ip), vehicle: carboxymethylcellulose (CMC)) 106 % of control.
